In ChEMBL document CHEMBL1151501, “A benzisothiazolone class of potent, selective mechanism-based inhibitors of human leukocyte elastase” (Bioorg Med Chem Lett, 1994):
pKi: −log10 of the molar value.

Key:
[1] = molecular target: T1, Neutrophil elastase (Homo sapiens) (UniProt P08246)
T1 sequence (whole entry): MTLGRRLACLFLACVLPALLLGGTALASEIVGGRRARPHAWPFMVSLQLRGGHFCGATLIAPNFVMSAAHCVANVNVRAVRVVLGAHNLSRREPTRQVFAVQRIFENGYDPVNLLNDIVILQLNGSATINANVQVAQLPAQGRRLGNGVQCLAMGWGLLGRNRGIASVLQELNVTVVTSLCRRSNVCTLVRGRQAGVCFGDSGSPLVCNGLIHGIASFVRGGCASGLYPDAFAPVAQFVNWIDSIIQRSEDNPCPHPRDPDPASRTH
Description: Inhibition of human leukocyte elastase (HLE) expressed as K inactivation rate

[2] = molecular target: T1, Neutrophil elastase (Homo sapiens); remark: listed apart in the source
Description: Inhibition of human leukocyte elastase (HLE) expressed as K reactivation rate

[3] = molecular target: T2, Neutrophil elastase (Homo sapiens, UniProt P08246); assay: Potency of Inhibition of human leukocyte elastase (HLE) expressed as apparent binding constant
T2 sequence (P08246 whole entry): T1 sequence (whole entry)

Row | K inact [1] | Kreact [2] | pKi [3] | SMILES
1 | 45300 M⁻¹ s⁻¹ | 0.00014 s⁻¹ | – | CCOc1cccc2c1C(=O)N(CSc1nnnn1-c1ccccc1)S2(=O)=O
2 | 8900 M⁻¹ s⁻¹ | 0.00016 s⁻¹ | – | CC(C)Oc1cccc2c1C(=O)N(CSc1nnnn1-c1ccccc1)S2(=O)=O
3 | – | – | 5.70 | CC(C)(C)c1cccc2c1C(=O)N(CSc1nnnn1-c1ccccc1)S2(=O)=O
4 | 630 M⁻¹ s⁻¹ | 0.0001 s⁻¹ | – | CC(=O)OCN1C(=O)c2ccccc2S1(=O)=O
5 | – | 0.00036 s⁻¹ | – | O=C1c2c(Br)cccc2S(=O)(=O)N1CSc1nnnn1-c1ccccc1
6 | 1000 M⁻¹ s⁻¹ | 0.0001 s⁻¹ | – | Cn1nnnc1SCN1C(=O)c2ccccc2S1(=O)=O
7 | 5800 M⁻¹ s⁻¹ | 0.0005 s⁻¹ | – | O=C1c2c(-c3ccccc3)cccc2S(=O)(=O)N1CSc1nnnn1-c1ccccc1
8 | 2500 M⁻¹ s⁻¹ | 0.0001 s⁻¹ | – | O=C1c2ccccc2S(=O)(=O)N1CSc1nnnn1C1CCCCC1
9 | 190 M⁻¹ s⁻¹ | 4.7e-05 s⁻¹ | – | Cn1cnnc1SCN1C(=O)c2ccccc2S1(=O)=O
